The record followed here is publication PMC10725991, “Kaempferol is a novel antiviral agent against channel catfish virus infection through blocking viral attachment and penetration in vitro” (Frontiers in Veterinary Science, 2023).

In this assay the test system is CCV in CCO cells. Briefly: Virus attachment assay. The note with it: kaempferol 15 μg/mL, 24 h. The class given is cell-based, Channel catfish virus (CCV, Ictalurid herpesvirus 1). How it is done:
The attachment assay was performed as previously described, with slight modifications ([35]). Briefly, monolayer CCO cells seeded in 24-well plates were pre-cooled at 4°C for 30 min, and then the pre-cooled cells were treated with kaempferol (15 μg/mL) or left untreated for 2 h at 4°C. Cells were then incubated with CCV at 4°C for 1 h to allow virus attachment but prevent viral internalization. Thereafter, the compound and unattached virus were washed with ice-cold PBS and a fresh DMEM medium was added. After incubated at 28°C for 24 h, the cells were collected for subsequent experiments, including RT-qPCR and viral titer.
Measurement of viral titer was described previously ([5]). […]
For RT-qPCR, the total RNA was isolated from CCV-infected cells using RnaExTM (Trizol)^a reagent (GENERAY, China), and reversed transcribed applying a HiScript III RT SuperMix with gDNA wiper (Vazyme, China) following the manufacturer’s instructions. Quantitative PCR was performed with a LightCycler 96 Real-Time PCR Detection System (Roche, USA) using ChamQ Universal SYBR qPCR Master Mix (Vazyme, China) with the following cycle conditions: 95°C for 30 s, followed by 40 cycles of 95°C for 10 s and 60°C for 30 s. […] Fold changes of the selected gene vs 18 s (internal reference) were calculated by the 2^−△△Ct method. […]

Take `O=c1c(O)c(-c2ccc(O)cc2)oc2cc(O)cc(O)c12` [Kaempferol]: the “production of intracellular virus (virus titer), attachment assay” value is given as “significantly reduced”. Further, for the setting “2 h at 4°C”, the “down-regulation of viral attachment (CCV ORF 39/ORF 59, RT-qPCR) vs CCV control” value is listed as “more than 50%”.
